Consider 2 compounds from US20210251269A1, “Beverages Comprising Highly Soluble Steviol Glycoside Blend and Glucosylated Steviol Glycosides” (The Coca-Cola Company, priority 2018, published 2021).

The nature of data set [1]: Solubility at syrup stage (lemon lime and cola beverage syrup, 5.5+1). It is filed as physicochemical. As to the method: The ingredients were dissolved in filtered water to constitute a syrup, then the final beverage was made by weighing the appropriate syrup amount and adding carbonated water using a ratio of 1-part syrup+5.5 parts carbonated water. Final beverages were filled in 300 ml glass bottles then aged for 3 days at 35° C. before they were cooled and served cold (4° C.). The control with Reb-M was made by heating water up to around 47° C. then dissolving Reb-M. After complete dissolution, the concentrated Reb-M solution was cooled down to ambient temperature before the rest of the ingredients were added.

Data set [2] in a line: Sensory evaluation of beverages by expert panelists. It is filed as in vivo. As to conditions: 480 ppm steviol glycosides in finished beverage; at least 5 expert panelists, blind; carbonated beverages tasted at 4° C. As to the method:
Steviol glycosides with high purity (>95%) namely Rebaudioside A, B, D, M, Glycosylated steviol glycoside (GSG) were evaluated in acidified citric buffer, a lemon lime and a cola carbonated beverage at concentration of 480 ppm in finished beverage.
The beverages were evaluated blindly by at least 5 expert panelists who work and taste steviol glycosides sweetened beverages daily. Samples were coded and randomly presented to the panelists. Panelists were instructed to eat an unsalted cracker and rinse the mouth with water before and in between samples. The maximum samples for each session was set at 5 samples to avoid fatigue. For each sample, panelists were instructed to take 3 sips, then write down their evaluation comments. Mock beverages were tasted at ambient temperature while carbonated beverages (diet lemon lime and cola) were tasted at 4° C.

The conditions of data set [3]: cited from earlier work.

`C=C1C[C@@]23CC[C@H]4[C@@](C)(CCC[C@@]4(C)C(=O)O[C@@H]4O[C@H](CO)[C@@H](O)[C@H](O[C@@H]5O[C@H](CO)[C@@H](O)[C@H](O)[C@H]5O)[C@H]4O[C@@H]4O[C@H](CO)[C@@H](O)[C@H](O)[C@H]4O)[C@@H]2CC[C@]1(O[C@@H]1O[C@H](CO)[C@@H](O)[C@H](O[C@@H]2O[C@H](CO)[C@@H](O)[C@H](O)[C@H]2O)[C@H]1O[C@@H]1O[C@H](CO)[C@@H](O)[C@H](O)[C@H]1O)C3` [Reb-M, Rebaudioside M]: the “solubility at syrup stage” value in data set [1] is 0.1%. The “Panelist Rating (1 = most preferred, 6 = least preferred)” value in data set [2] is reported as 2.
In the case of `C=C1C[C@@]23CC[C@H]4[C@@](C)(CCC[C@@]4(C)C(=O)O[C@@H]4O[C@H](CO)[C@@H](O)[C@H](O)[C@H]4O)[C@@H]2CC[C@]1(O[C@@H]1O[C@H](CO)[C@@H](O)[C@H](O[C@@H]2O[C@H](CO)[C@@H](O)[C@H](O)[C@H]2O)[C@H]1O[C@@H]1O[C@H](CO)[C@@H](O)[C@H](O)[C@H]1O)C3` [Rebaudioside A], the aqueous solubility entry in data set [3] was “about 0.8 wt %”.
